Consider 6 molecules from patent US20160022708A1, “METHODS AND COMPOSITIONS FOR THE TREATMENT OF GLUTAMINE-ADDICTED CANCERS” (ST. JUDE CHILDREN'S RESEARCH HOSPITAL, priority 2013, published 2016).

Counter-ions that a name gives are not always drawn. Like-named read-outs stand apart in the source and are kept apart here.

The test system of one data set is BJ foreskin fibroblasts. Description: CyQuant viability assay, control cell line. It counts as cell-based. The procedure: (§1) To survey the effects of DON on neuroblastomas and Ewing's sarcomas, DON was tested on six neuroblastoma (SK-N-AS, SK-N-BE(2), SK-N-FI, IMR32, Kelly, and SH-SySy) and three Ewing's sarcoma cell lines (SK-N-MC, RD-ES and SK-ES-1) and a control immortalized foreskin fibroblast cell line (BJ). Using the CyQuant viability assay, the respective sensitivities of each cell line to DON were determined after 72 hrs of treatment in a universal media (EMEM, 10% FBS, 0.5 mM glutamine) containing physiological levels of glutamine and glucose. […] More strikingly, all three Ewing's sarcoma cell lines were especially sensitive to DON with an 80% loss in cell viability (FIG. 1B).
(§2) 6-diazo-5-oxo-L-norleucine (Sigma Aldrich, St. Louis, Mo.) and epigallocatechin-3-gallate (Sigma Aldrich, St. Louis, Mo.) were solubilized in water, aminooxyacetate (Sigma Aldrich, St. Louis, Mo.), obatoclax mesylate (Selleckchem,), and ABT-263 (Sellekchem) were dissolved in 100% dimethyl sulfoxide (DMSO). In a 96-well tissue culture plate, 5×10^4 cells were plated in 100 ul of media containing EMEM, 10% FBS and 0.5 mM glutamine per well. Four hours after plating drugs were diluted to a 2× concentration in plating media and added to wells. Plates were incubated for 72-hrs and then submitted to CyQuant Cell Direct Proliferation Assay (Life Technologies) according to manufacturer's instructions and read with a Synergy HT Multi-mode microplate reader (Biotek).

The conditions of data set [1]: cited from earlier work.
For data set [2], the system named is neuroblastoma and Ewing's sarcoma cell lines. The experiment in a line: CyQuant viability assay, panel of NB and Ewing's sarcoma cell lines. Format: cell-based. Conditions: for effectiveness on cancer cell lines: broad ranges of drug concentrations; for efficacy as single agent in vitro: single agents; for single agent effect: more glutamine-addicted cell lines such as IMR32, Kelly, RD-ES and SK-ES-1. The procedure:
as §1, with “1B). […]” for “1B).”
as §2

For data set [3], the system named is SK-N-AS tumors. The experiment in a line: IHC of BrdU and cleaved caspase-3 in tumors. It counts as in vivo, mice. The conditions noted are these: ~1000 mm^3 tumors, 100 mg/kg DON day 1 and day 4. How it is done:
(§3) To investigate the effects of DON on proliferation and cell death in vivo, additional NB tumor studies using SK-N-AS and SK-N-BE(2) cells were set up. Tumors in each cohort were allowed to grow to ˜1000 mm^3 before they underwent one round of DON treatment at 100 mg/kg of DON twice a week. On day 4, the second dose of DON was given 6-hrs prior and BrdU injected 2 hours prior to harvesting the tumors for histology (FIG. 3A).
(§4) For in vivo labeling of proliferating cells, mice with subcutaneous SK-N-AS or SK-N-BE(2) tumors (1000 mm^3) were treated with DON and injected with BrdU (BD Biosciences). Mice were given an intraperitoneal (i.p.) injection of 100 mg/kg DON on day 1 and again on day 4. Four hours after the second dose of DON, mice were injected i.p. with 150 μl of 10 mg/ml BrdU. Tumor tissue was harvested 2 hours after addition of BrdU and samples were fixed in 10% formalin. Paraffin-embedded tissue sections were then stained for BrdU incorporation by the St. Jude Veterinary Pathology Core.

Data set [4] relates to SK-N-BE(2) tumors. Description: IHC of BrdU and cleaved caspase-3 in tumors. It counts as in vivo, mice. The conditions noted are these: ~1000 mm^3 tumors, 100 mg/kg DON day 1 and day 4. The procedure:
as §3, §4

The test system of data set [5] is Ewing's sarcoma cell lines (SK-N-MC, RD-ES and SK-ES-1). The experiment in a line: CyQuant viability assay, Ewing's sarcoma cell lines. Format: cell-based. Conditions: all three Ewing's sarcoma cell lines; DON 72 hrs. How it is done:
as §1
as §2, with “Four hours after plating drugs were diluted to a 2× concentration in plating media and added to wells.” left out

Data set [6] concerns SK-N-AS tumors. Description: Subcutaneous tumor growth. Format: in vivo, mice. Conditions: 100 mg/kg twice a week I.P. How it is done:
(§5) DON's effects on NB and EWS tumors in vivo were assessed. Subcutaneous tumors for the neuroblastoma cell lines SK-N-AS and SK-N-BE(2) as well as the Ewing's Sarcoma cell lines SK-N-MC and SK-ES-1 were grown to at least 200 mm^3 and were then randomized into either DON or control treatment groups. Mice were then treated with 100 mg/kg of DON or water control twice a week by intraperitoneal (I.P.) injection, equivalent to a twice a week dose of 300 mg/m^2 in children. Previous work has shown that a dose as high as 520 mg/m^2 was safely achievable in children. […] To attempt to extend the course of treatment, mice either were treated with half the dose at 50 mg/kg twice a week or with a once weekly injection of 100 mg/kg (1×/wk). The effectiveness of the original drug regimen was compared to the two new treatment schedules using mice with subcutaneous tumors from the most DON-resistant (SK-N-FI) and the most DON-sensitive (SK-N-MC) cell line in vitro. This experiment would allow for the determination whether the in vitro data was predictive of differences in response to DON in vivo. Both of the new drug regimens allowed a significant extension in length of treatment from 11 days to greater than 24 days. However, only the 50 mg/kg dose was effective against both tumor types. […] In addition, the SK-N-BE2 and IMR32 neuroblastoma cell lines were tested at the 50 mg/kg dose in mice with subcutaneous tumors. The 50 mg/kg dose was effective against both tumor types (FIG. 7 A-C).
(§6) For subcutaneous tumor experiments, cells were injected into the hind flank of either 6-8 week old athymic (nu/nu) mice (Charles River) or into Rag2^−/−; gamma c^−/− mice (kindly provided by Dr. Shannon McKinney-Freeman). No difference in tumor growth kinetics was observed between different strains. SK-N-AS, SK-N-MC, and SK-ES-1 cells were injected at 2×10^6 cells per mouse in 100 μl total volume. SK-N-BE(2) cells were injected in a 1:1 mix of cells and Matrigel (BD Biosciences) at a final concentration of 2×10^6 cells per mouse. Tumor size was measured by digital caliper, and tumor volume was calculated using the formula 1/2*(length*width^2). When tumors reached an average size of 200 mm^3 mice were randomized into treatment groups. On the day of treatment, mice were weighed then given an intraperitoneal (i.p.) injection of either 100 mg/kg DON, 50 mg/kg or water control. All animal experiments were performed in accordance with the guidelines established by IACUC.

A further data set relates to SK-N-MC tumors. The experiment in a line: Subcutaneous tumor growth. It counts as in vivo, mice. The procedure:
as §5, §6

A further data set relates to SK-N-FI tumors. The experiment in a line: Subcutaneous tumor growth. The conditions noted are these: 50 mg/kg twice a week I.P. Format: in vivo, mice. The procedure: as §5, §6
The subject of data set [7] is SK-N-BE(2) tumors. Description: Subcutaneous tumor growth. Format: in vivo, mice. The procedure: as §5, §6
In a further data set the test system is SK-ES-1 tumors. Description: Subcutaneous tumor growth. The conditions noted are these: 100 mg/kg twice a week I.P. Format: in vivo, mice. How it is done: as §5, §6
A further data set relates to IMR32 tumors. Description: Subcutaneous tumor growth. Format: in vivo, mice. Conditions: 50 mg/kg twice weekly I.P. The procedure: as §5, §6
The conditions of data set [8]: children, previous work; cited from earlier work.
For another data set, the system named is SK-N-FI cells. Description: CyQuant viability assay. Conditions: DON 72 hrs; EMEM, 10% FBS, 0.5 mM glutamine. Format: cell-based. The procedure: as §1
as §2, with “Four hours after plating drugs were diluted to a 2× concentration in plating media and added to wells.” left out

Data set [9] relates to SK-N-AS cells. The experiment in a line: Cell cycle analysis by BrdU labeling (FACS). The conditions noted are these: 100 μM DON 72 hrs. It counts as cell-based. How it is done: as §3
(§7) In vitro cell cultures were pulse-labeled with 10 μM BrdU (BD Biosciences) for 90 minutes at 37° C., and then fixed and stained with Anti-BrdU-FITC antibody and 7-AAD (BD Biosciences, #559619), according to manufacturer's protocol. Stained samples were then analyzed by the Flow Cytometry and Cell Sorting Shared Resource facility at St. Jude Children's Research Hospital.

The test system of data set [10] is SK-N-BE(2) cells. Description: Cell cycle analysis by BrdU labeling (FACS). It counts as cell-based. The conditions noted are these: 100 μM DON 72 hrs. How it is done:
as §3, §7

A short description of data set [11]: Tolerability in tumor-bearing mice (weight loss, length of treatment). Format: in vivo. How it is done:
as §5
For subcutaneous tumor experiments, cells were injected into the hind flank of either 6-8 week old athymic (nu/nu) mice (Charles River) or into Rag2^−/−; gamma c^−/− mice (kindly provided by Dr. Shannon McKinney-Freeman). No difference in tumor growth kinetics was observed between different strains. SK-N-AS, SK-N-MC, and SK-ES-1 cells were injected at 2×10^6 cells per mouse in 100 μl total volume. […] Tumor size was measured by digital caliper, and tumor volume was calculated using the formula 1/2*(length*width^2). […]

Data set [12] concerns SK-N-AS cells. Description: Annexin / propidium iodide staining (FACS). Format: cell-based. The conditions noted are these: 100 μM DON 72 hrs. How it is done:
as §3
(§8) To measure early apoptosis, cells were plated in EMEM media containing 0.5 mM L-glutamine, 10% FBS, and 1% Penicillin/Streptomycin, then treated+/−100 μM DON for 72 hours. Both adherent and floating cells in the media were collected at harvest, and 3×10^5 cells were then stained with Annexin-V-FITC antibody for 15 minutes at room temperature. Cells were then counterstained with propidium iodide (9.1 μM final concentration) and filtered through a 40 μm nylon mesh. Immediately after staining, samples were analyzed by the Flow Cytometry and Cell Sorting Shared Resource facility at St. Jude Children's Research Hospital.

Data set [13] has as its system SK-N-BE(2) cells. Description: Annexin / propidium iodide staining (FACS). Format: cell-based. Conditions: 100 μM DON 72 hrs. How it is done:
as §3, §8

The conditions of data set [14]: in vivo; cited from earlier work.

For the molecule `CC1(C)CCC(c2ccc(Cl)cc2)=C(CN2CCN(c3ccc(C(=O)NS(=O)(=O)c4ccc(N[C@H](CCN5CCOCC5)CSc5ccccc5)c(S(=O)(=O)C(F)(F)F)c4)cc3)CC2)C1` [ABT-263, navitoclax], the “toxicity to BJ cells” value with BJ foreskin fibroblasts is “non-toxic”. Also, the oral bioavailability result in data set [1] (in vivo, po) is on record as “orally bioavailable”. In data set [1] (in vivo), the “major adverse side effect” value was “thrombocytopenia”; the safety and tolerability result is “safe and well-tolerated”. For the same molecule, the tolerability result in data set [1] (phase I and phase II clinical trials in adults) is recorded as “well tolerated”. Besides, in data set [2], the “effectiveness on cancer cell lines” value is on record as “effective on all the cancer cell lines tested” and the “efficacy as single agent in vitro” value is listed as “some efficacy”.

For `NOCC(=O)O` [AOA, aminooxyacetate], the single agent effect entry in data set [2] is listed as “effective as single agents”.

In the case of `[N-]=[N+]=CC(=O)CC[C@H](N)C(=O)O` [DON, 6-diazo-5-oxo-L-norleucine], the caspase-3 cleavage result with SK-N-AS tumors [3] is “no difference”. Moreover, the “reduction in BrdU incorporation” value with SK-N-AS tumors [3] and with SK-N-BE(2) tumors [4] was more than 90% in each case. The “increase in caspase-3 cleavage” value in the data set with SK-N-BE(2) tumors [4] is on record as “greater than 2 fold”. The “toxicity to BJ cells” value in the data set on BJ foreskin fibroblasts (broad ranges of drug concentrations) was “non-toxic”. In addition, the “loss in cell viability” value in data set [5] is 80%. Besides, the tumor growth entry is on record as “greatly reduced growth” with SK-N-AS tumors [6]; “effective” in the data set with SK-N-MC tumors (50 mg/kg twice a week I.P.); “dramatically blocked growth” in the data set on SK-N-MC tumors (100 mg/kg twice a week I.P.); “effective” in the data set with SK-N-FI tumors; “effective” in the data set with SK-N-BE(2) tumors [7] (50 mg/kg twice weekly I.P.); “greatly reduced growth” with SK-N-BE(2) tumors [7] (100 mg/kg twice a week I.P.). Further, the tumor growth result in the data set on SK-ES-1 tumors is “dramatically blocked growth”; in the data set with IMR32 tumors, “effective”. Moreover, in data set [8], the dose safely achievable is recorded as not above 520 mg/m^2. Besides, the “reduction in cell numbers” value in the data set on SK-N-FI cells is 20%. For the same molecule, the “entry into the S-phase of the cell cycle” value with SK-N-AS cells [9] and with SK-N-BE(2) cells [10] was “reduced entry into the S-phase” throughout. For the same molecule, the length of treatment result is “greater than 24 days” in data set [11] (50 mg/kg twice a week or 100 mg/kg once weekly) and 11 days in data set [11] (original regimen 100 mg/kg twice a week). Besides, the “weight loss in the mice” value in [11] (100 mg/kg twice a week I.P.) was “caused weight loss”. The cell death result in the data set with SK-N-AS cells [12] and with SK-N-BE(2) cells [13] was “increase in cell death” throughout. Also, in data set [2] (all cell lines except control BJ, 72 hrs), the “sensitivity to DON” value is “some sensitivity”. Further, the “effectiveness on cancer cell lines” value in data set [2] is “effective on all the cancer cell lines tested”. In addition, the “loss in cell numbers” value in data set [2] (multiple cell lines, DON 72 hrs, 0.5 mM glutamine) is “greater than 60%”. In addition, the “efficacy as single agent in vitro” value in [2] was “some efficacy”.

In the case of `CC1=C(/C=C/C(C)=C/C=C/C(C)=C/C(=O)Nc2ccc(O)cc2)C(C)(C)CCC1` [fenretinide, N-(4-hydroxyphenyl)retinamide], the bioavailability entry in data set [14] was “poor bioavailability”. The “toxicity to BJ cells” value in the data set on BJ foreskin fibroblasts is reported as “non-toxic”. Moreover, the “effectiveness on cancer cell lines” value in data set [2] is listed as “effective on all the cancer cell lines tested”.

Turning to `COC1=CC(c2cc3ccccc3[nH]2)=N/C1=C\c1[nH]c(C)cc1C` [obatoclax mesylate], the “efficacy as single agent in vitro” value in data set [2] is listed as “some efficacy”.

For epigallocatechin-3-gallate [EGCG], in [2], the single agent effect entry is “effective as single agents”.
